The test system of data set [1] is TGF-β expressed in hUCB-MSCs. Nature of the data set: TGF-β ELISA of hUCB-MSC supernatant. It is filed as cell-based, human. Particulars: pimecrolimus 0.01 to 100 ng/ml, 72 hours, FIG. 4A. Here is the method:
(§1) Specifically, hUCB-MSCs were seeded in a 6-well cell culture plate at a density of 1.5×10^5 cells per well. After 24 hours of incubation, hUCB-MSCs were treated with pimecrolimus at various concentrations and further incubated for 72 hours. After the incubation was completed, the supernatant was collected by centrifugation and the thus-obtained supernatant was applied to Human […] Quantikine ELISA (R&D Systems, Minneapolis, MN, USA) and Human PGE2. Quantikine ELISA (R&D Systems) to analyze the expression level of TGF-β or prostaglandin E2 (PGE2) (FIGS. 4A and 4B).
A general note: An ELISA detects its analyte on a solid surface through an enzyme-linked reagent.

Data set [2] relates to hUCB-MSC. The data set is described as follows: Cell cycle analysis of hUCB-MSC. In kind it is cell-based. As to conditions: pimecrolimus 0.01 to 100 ng/ml, 3 days; FIG. 2C. Here is the method: Next, the stem cells (hUCB-MSC) were cultured and treated with various concentrations of pimecrolimus for 3 days, and then the change in cell cycle profile of hUCB-MSC were compared using cell cycle analysis (FIG. 2C).

In data set [3] the test system is hUCB-MSC. Nature of the data set: Proliferative capacity of hUCB-MSC. In kind it is cell-based. Particulars: pimecrolimus 0.01 to 100 ng/ml, 3 days; FIG. 2B. Here is the method:
Next, the stem cells (hUCB-MSC) were cultured and treated with various concentrations of pimecrolimus for 3 days, and then the change in proliferative capacity of hUCB-MSC were compared (FIG. 2B).

Data set [4] relates to PBMC cells treated with Concanavalin A (ConA). Nature of the data set: MLR analysis, immunosuppressive activity on ConA-treated PBMC. It is filed as cell-based. Here is the method:
PBMC cells treated with Concanavalin A (ConA) were cultured and treated with pimecrolimus and mesenchymal stem cells (hUCB-MSC) individually or in combination, and then the immunosuppressive activity measured in each experimental group was compared (FIG. 3). In particular, PBMC cells that were not treated with ConA, not co-cultured with hUCB-MSC, and not treated with pimecrolimus were used as the negative control (NC), and as the positive control (PC) treated with ConA, PBMC cells that were not co-cultured with hUCB-MSC and not treated with pimecrolimus were used as the positive control (PC).
Specifically, PBMC cells treated with Concanavalin A (ConA) were cultured and treated with pimecrolimus and hUCB-MSC individually or in combination, and then the immunosuppressive activity measured in each experimental group was compared.
In particular, 10 experimental groups were set according to the combination pattern of pimecrolimus and hUCB-MSC (Table 1)

Data set [5] has as its system hUCB-MSC. The data set is described as follows: Cellular morphology of hUCB-MSC. In kind it is cell-based. Particulars: pimecrolimus 0.01 to 100 ng/ml, 3 days; FIG. 2D. Here is the method: Next, the stem cells (hUCB-MSC) were cultured and treated with various concentrations of pimecrolimus for 3 days, and then the change in cellular morphology of hUCB-MSC were compared (FIG. 2D).

Data set [6] relates to PGE2 expressed in hUCB-MSCs. Nature of the data set: PGE2 ELISA of hUCB-MSC supernatant. It is filed as cell-based, human. Particulars: pimecrolimus 0.01 to 100 ng/ml, 72 hours, FIG. 4B. Here is the method: as §1
For data set [7], the system named is hUCB-MSC. The data set is described as follows: MTT assay, cell viability of hUCB-MSC. In kind it is cell-based. Particulars: pimecrolimus various concentrations, 3 days, FIG. 2A. Here is the method: First, the stem cells (hUCB-MSC) were cultured and treated with various concentrations of pimecrolimus for 3 days, and then the change in cell viability of hUCB-MSC were compared using the MTT assay (FIG. 2A).
For orientation: Tetrazolium assays rely on reduction of a dye to a coloured formazan, in cell work by metabolically active cells.

Data set [8] deals with hUCB-MSC surface markers (CD45, CD34, CD36, CD105, CD29, CD73). Nature of the data set: Flow cytometry of surface markers of hUCB-MSC. In kind it is cell-based. Particulars: pimecrolimus 100 ng/ml, 3 days, FIG. 2E. Here is the method:
Lastly, the stem cells (hUCB-MSC) were cultured and treated with 100 ng/ml of pimecrolimus for 3 days, and then the expression levels of surface markers (CD45, CD34, CD36, CD105, CD29, CD73) of hUCB-MSC were compared using flow cytometry. (FIG. 2E).
On the technique in general: In flow cytometry, cells or beads pass a laser one at a time.

The subject of data set [9] is COX2 expressed in hUCB-MSCs. The data set is described as follows: Western blot of COX2 in hUCB-MSC lysate. It is filed as cell-based. As to conditions: pimecrolimus 0.01 to 100 ng/ml, 72 hours, GAPDH internal control, FIG. 4C. Here is the method: hUCB-MSCs treated with pimecrolimus were obtained according to the method of Example 3-2, centrifuged to collect the precipitated cells, and then disrupted to obtain cell lysate. Subsequently, Western blot analysis was performed using the thus-obtained cell lysate and COX2 antibodies (FIG. 4C). In particular, GAPDH was used as an internal control.

Molecules are shown by their SMILES. Entries after “also recorded” stand apart in the source; their conditions may differ.

With `CC[C@@H]1/C=C(\C)C[C@H](C)C[C@H](OC)[C@H]2O[C@@](O)(C(=O)C(=O)N3CCCC[C@H]3C(=O)O[C@H](/C(C)=C/[C@@H]3CC[C@H](Cl)[C@H](OC)C3)[C@H](C)[C@@H](O)CC1=O)[C@H](C)C[C@@H]2OC` [pimecrolimus], in [1], the “level of TGF-β expressed in hUCB-MSCs” value was “did not show a significant change”. In the data set with hUCB-MSC [2], the “change in cell cycle profile of hUCB-MSC” value is “did not change the cell cycle profile”. Also, in the data set with hUCB-MSC [3], the “change in proliferative capacity of hUCB-MSC” value is reported as “did not change the proliferative capacity”. In addition, the “immune activity of ConA-treated PBMC (immunosuppressive activity)” value in [4] (Example 3-1, treated individually or in combination, versus ConA positive control, FIG. 3) was “the immune activity was suppressed”. In data set [4] (each treated alone, 3 to 7 days or 5 to 7 days (Experimental Groups 2 and 3; 5 and 9), FIG. 5A), the “immunosuppressive activity, separate treatment” value is “comparatively superior over the immunosuppressive activity of hUCB-MSCs”. In addition, in the data set with hUCB-MSC [5], the “change in cellular morphology of hUCB-MSC” value is given as “did not change the cellular morphology”. Besides, the “level of PGE2 expressed in hUCB-MSCs” value in data set [6] is recorded as “rapidly reduced in proportion to the treatment concentrations”. Also, the “change in cell viability of hUCB-MSC” value in the data set with hUCB-MSC [7] is recorded as “did not change the cell viability”. For the same compound, the “expression levels of surface markers of hUCB-MSC” value in data set [8] is recorded as “did not change the expression levels of surface markers”. The “level of COX2 expressed in hUCB-MSCs” value in data set [9] is “rapidly reduced in proportion to the treatment concentrations; also recorded: inhibit the expression of COX2”.

The values above are taken from patent US20240366679A1, “METHOD FOR TREATING IMMUNE DISEASES USING CALCINEURIN INHIBITOR AND STEM CELLS” (KANGSTEM BIOTECH CO., LTD., priority 2021, published 2024).
